Test results reported in patent publication US20060069132A1, “Azolecarboxamide herbicides” (priority 2004, published 2006).

Columns and labels:
morningglory = assay: Test B pre-/postemergence herbicide test; assay type: in vivo, Ipomoea coccinea; conditions: for Morningglory plant response rating (0 to 100 scale) / Plant response rating, Morningglory: 0 = no effect, 100 = complete control, preemergence; for Morningglory plant response rating: postemergence
Method in brief: (§1)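 Test chemicals in a non-phytotoxic solvent mixture with surfactant were applied preemergence to seeded species and postemergence to plants 2-18 cm tall (1- to 4-leaf stage); rice and barnyardgrass were also tested in a flooded paddy at the 2-leaf stage. Visual rating versus controls after 13-15 days in greenhouse, scale 0 (no effect) to 100 (complete control).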

lambsquarters = assay: Test B pre-/postemergence herbicide test; assay type: in vivo, Chenopodium album; conditions: for Lambsquarters plant response rating (0 to 100 scale) / Plant response rating, Lambsquarters: 0 = no effect, 100 = complete control, preemergence; for Lambsquarters plant response rating: postemergence
Method in brief: (§2)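 Response was scored visually 13 to 15 days after treatment against untreated greenhouse controls, 0 meaning no effect and 100 complete control. Formulations (solvent mixture plus surfactant) went onto soil after planting, onto foliage of 1- to 4-leaf plants, and onto 2-leaf plants in a flooded paddy set including rice and barnyardgrass.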

barnyardgrass [1] = assay: Test B pre-/postemergence herbicide test; assay type: in vivo, Echinochloa crus-galli; conditions: for Barnyardgrass plant response rating (0 to 100 scale) / Plant response rating, Barnyardgrass: 0 = no effect, 100 = complete control, preemergence; for Barnyardgrass plant response rating: postemergence
Method in brief: as §1

rice = assay: Test B flooded paddy test; assay type: in vivo, Oryza sativa; conditions: 1000 g ai/ha, scale 0 to 100 (0 no effect, 100 complete control)
Method in brief: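 Postemergence plants were sprayed with formulated test chemicals at 2 to 18 cm height (1- to 4-leaf stage); paddy species were grown to the 2-leaf stage. After 13 to 15 days in a greenhouse, injury was rated visually against untreated controls on a 0–100 scale (0 = no effect, 100 = complete control).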

large crabgrass = assay: Test B pre-/postemergence herbicide test; assay type: in vivo, Digitaria sanguinalis; conditions: for Crabgrass, Large plant response rating (0 to 100 scale) / Plant response rating, Crabgrass, Large: 0 = no effect, 100 = complete control, preemergence; for Crabgrass, Large plant response rating: postemergence
Method in brief: as §2

pigweed = assay: Test B pre-/postemergence herbicide test; assay type: in vivo, Amaranthus retroflexus; conditions: for Pigweed plant response rating (0 to 100 scale) / Plant response rating, Pigweed: 0 = no effect, 100 = complete control, preemergence; for Pigweed plant response rating: postemergence
Method in brief: as §2

[2] = test system: small flower umbrella sedge; assay: Test B flooded paddy test; assay type: in vivo, Cyperus difformis; conditions: 1000 g ai/ha, scale 0 to 100 (0 no effect, 100 complete control)
Method in brief: (§3)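 Paddy species grown to the 2-leaf stage under flooding; blackgrass sprayed postemergence at 2–18 cm (1- to 4-leaf stage). Plants kept in a greenhouse for 13 to 15 days, then visually rated against controls on 0 (no effect) to 100 (complete control).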

barnyardgrass [3] = assay: Test B flooded paddy test; assay type: in vivo, Echinochloa crus-galli; conditions: 1000 g ai/ha, scale 0 to 100 (0 no effect, 100 complete control)
Method in brief: as §3

wild oat = assay: Test B postemergence herbicide test; assay type: in vivo, Avena fatua; conditions: postemergence
Method in brief: (§4)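 Scale 0–100: zero equals no visible effect, 100 complete control, judged by eye relative to controls. Timing: 13 to 15 days in greenhouse post-treatment. Growth stage at spraying: two leaves (paddy) or one to four leaves, 2–18 cm (postemergence).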

Surinam grass = assay: Test B pre-/postemergence herbicide test; assay type: in vivo, Urochloa decumbens; conditions: for Surinam Grass plant response rating (0 to 100 scale) / Plant response rating, Surinam Grass: 0 = no effect, 100 = complete control, preemergence; for Surinam Grass plant response rating: postemergence
Method in brief: as §2

wheat = assay: Test B postemergence herbicide test; assay type: in vivo, Triticum aestivum; set-up: key to Wheat plant response rating: 0 = no effect, 100 = complete control; conditions: postemergence
Method in brief: as §4

giant foxtail = assay: Test B pre-/postemergence herbicide test; assay type: in vivo, Setaria faberi; conditions: for Foxtail, Giant plant response rating (0 to 100 scale) / Plant response rating, Foxtail, Giant: 0 = no effect, 100 = complete control, preemergence; for Foxtail, Giant plant response rating: postemergence
Method in brief: as §2

blackgrass = assay: Test B postemergence herbicide test; assay type: in vivo, Alopecurus myosuroides; conditions: postemergence
Method in brief: as §3

velvetleaf = assay: Test B pre-/postemergence herbicide test; assay type: in vivo, Abutilon theophrasti; conditions: for Velvetleaf plant response rating (0 to 100 scale) / Plant response rating, Velvetleaf: 0 = no effect, 100 = complete control, preemergence; for Velvetleaf plant response rating: postemergence
Method in brief: as §2

cocklebur = assay: Test B pre-/postemergence herbicide test; assay type: in vivo, Xanthium strumarium; conditions: for Cocklebur plant response rating (0 to 100 scale) / Plant response rating, Cocklebur: 0 = no effect, 100 = complete control, preemergence; for Cocklebur plant response rating: postemergence
Method in brief: as §1

[4] = 125 g ai/ha, visual rating, scale 0 (no effect) to 100 (complete control)
[5] = 500 g ai/ha, scale 0 to 100, 0 is no effect, 100 is complete control

CCNC(=O)c1ccc(F)c(NC(=O)c2cc(C(C)(C)C)nn2CC)n1 [Compound 278]
Morningglory plant response rating (0 to 100 scale) (morningglory; 125 g ai/ha): 0
Plant response rating, Morningglory (morningglory; 500 g ai/ha, visual rating): 10
Morningglory plant response rating (morningglory; [4]): 0
Morningglory plant response rating (morningglory; [5]): 20
Lambsquarters plant response rating (0 to 100 scale) (lambsquarters; 125 g ai/ha): 100
Plant response rating, Lambsquarters (lambsquarters; 500 g ai/ha, visual rating): 100
Lambsquarters plant response rating (lambsquarters; [4]): 20
Lambsquarters plant response rating (lambsquarters; [5]): 30
Barnyardgrass plant response rating (0 to 100 scale) (barnyardgrass [1]; 125 g ai/ha): 30
Plant response rating, Barnyardgrass (barnyardgrass [1]; 500 g ai/ha, visual rating): 80
Barnyardgrass plant response rating (barnyardgrass [1]; [4]): 0
Barnyardgrass plant response rating (barnyardgrass [1]; [5]): 10
Rice plant response rating (rice): 60
Crabgrass, Large plant response rating (0 to 100 scale) (large crabgrass; 125 g ai/ha): 20
Plant response rating, Crabgrass, Large (large crabgrass; 500 g ai/ha, visual rating): 80
Crabgrass, Large plant response rating (large crabgrass; [4]): 0
Crabgrass, Large plant response rating (large crabgrass; [5]): 10
Pigweed plant response rating (0 to 100 scale) (pigweed; 125 g ai/ha): 100
Plant response rating, Pigweed (pigweed; 500 g ai/ha, visual rating): 100
Pigweed plant response rating (pigweed; [4]): 10
Pigweed plant response rating (pigweed; [5]): 40
Sedge, Umbrella plant response rating [2]: 70
Barnyardgrass plant response rating (barnyardgrass [3]): 60
Oat, Wild plant response rating (wild oat; [4]): 20
Oat, Wild plant response rating (wild oat; [5]): 30
Surinam Grass plant response rating (0 to 100 scale) (Surinam grass; 125 g ai/ha): 20
Plant response rating, Surinam Grass (Surinam grass; 500 g ai/ha, visual rating): 60
Surinam Grass plant response rating (Surinam grass; [4]): 10
Surinam Grass plant response rating (Surinam grass; [5]): 10
Wheat plant response rating (wheat; [4]): 30
Wheat plant response rating (wheat; [5]): 30
Foxtail, Giant plant response rating (0 to 100 scale) (giant foxtail; 125 g ai/ha): 20
Plant response rating, Foxtail, Giant (giant foxtail; 500 g ai/ha, visual rating): 80
Foxtail, Giant plant response rating (giant foxtail; [4]): 0
Foxtail, Giant plant response rating (giant foxtail; [5]): 10
Blackgrass plant response rating (blackgrass; [4]): 20
Blackgrass plant response rating (blackgrass; [5]): 30
Velvetleaf plant response rating (0 to 100 scale) (velvetleaf; 125 g ai/ha): 0
Plant response rating, Velvetleaf (velvetleaf; 500 g ai/ha, visual rating): 60
Velvetleaf plant response rating (velvetleaf; [4]): 10
Velvetleaf plant response rating (velvetleaf; [5]): 10
Cocklebur plant response rating (0 to 100 scale) (cocklebur; 125 g ai/ha): 0
Plant response rating, Cocklebur (cocklebur; 500 g ai/ha, visual rating): 0
Cocklebur plant response rating (cocklebur; [4]): 10
Cocklebur plant response rating (cocklebur; [5]): 30

CCn1nc(C(C)(C)C)cc1C(=O)Nc1nc(C(=O)N2CC=CC2)ccc1F [Compound 281]
Morningglory plant response rating (0 to 100 scale) (morningglory; 125 g ai/ha): 0
Plant response rating, Morningglory (morningglory; 500 g ai/ha, visual rating): 20
Morningglory plant response rating (morningglory; [4]): 0
Morningglory plant response rating (morningglory; [5]): 10
Lambsquarters plant response rating (0 to 100 scale) (lambsquarters; 125 g ai/ha): 90
Plant response rating, Lambsquarters (lambsquarters; 500 g ai/ha, visual rating): 100
Lambsquarters plant response rating (lambsquarters; [4]): 20
Lambsquarters plant response rating (lambsquarters; [5]): 30
Barnyardgrass plant response rating (0 to 100 scale) (barnyardgrass [1]; 125 g ai/ha): 20
Plant response rating, Barnyardgrass (barnyardgrass [1]; 500 g ai/ha, visual rating): 90
Barnyardgrass plant response rating (barnyardgrass [1]; [4]): 0
Barnyardgrass plant response rating (barnyardgrass [1]; [5]): 0
Rice plant response rating (rice): 70
Crabgrass, Large plant response rating (0 to 100 scale) (large crabgrass; 125 g ai/ha): 10
Plant response rating, Crabgrass, Large (large crabgrass; 500 g ai/ha, visual rating): 70
Crabgrass, Large plant response rating (large crabgrass; [4]): 10
Crabgrass, Large plant response rating (large crabgrass; [5]): 10
Pigweed plant response rating (0 to 100 scale) (pigweed; 125 g ai/ha): 100
Plant response rating, Pigweed (pigweed; 500 g ai/ha, visual rating): 100
Pigweed plant response rating (pigweed; [4]): 20
Pigweed plant response rating (pigweed; [5]): 30
Sedge, Umbrella plant response rating [2]: 70
Barnyardgrass plant response rating (barnyardgrass [3]): 70
Oat, Wild plant response rating (wild oat; [4]): 10
Oat, Wild plant response rating (wild oat; [5]): 20
Surinam Grass plant response rating (0 to 100 scale) (Surinam grass; 125 g ai/ha): 10
Plant response rating, Surinam Grass (Surinam grass; 500 g ai/ha, visual rating): 40
Surinam Grass plant response rating (Surinam grass; [4]): 10
Surinam Grass plant response rating (Surinam grass; [5]): 20
Wheat plant response rating (wheat; [4]): 30
Wheat plant response rating (wheat; [5]): 30
Foxtail, Giant plant response rating (0 to 100 scale) (giant foxtail; 125 g ai/ha): 10
Plant response rating, Foxtail, Giant (giant foxtail; 500 g ai/ha, visual rating): 60
Foxtail, Giant plant response rating (giant foxtail; [4]): 10
Foxtail, Giant plant response rating (giant foxtail; [5]): 10
Blackgrass plant response rating (blackgrass; [4]): 20
Blackgrass plant response rating (blackgrass; [5]): 30
Velvetleaf plant response rating (0 to 100 scale) (velvetleaf; 125 g ai/ha): 10
Plant response rating, Velvetleaf (velvetleaf; 500 g ai/ha, visual rating): 70
Velvetleaf plant response rating (velvetleaf; [4]): 0
Velvetleaf plant response rating (velvetleaf; [5]): 20
Cocklebur plant response rating (0 to 100 scale) (cocklebur; 125 g ai/ha): 0
Plant response rating, Cocklebur (cocklebur; 500 g ai/ha, visual rating): 0
Cocklebur plant response rating (cocklebur; [4]): 20
Cocklebur plant response rating (cocklebur; [5]): 20

C#CCNC(=O)c1cc(NC(=O)c2cc(C(C)(C)C)nn2CC)ccn1 [Compound 283]
Morningglory plant response rating (0 to 100 scale) (morningglory; 125 g ai/ha): 0
Plant response rating, Morningglory (morningglory; 500 g ai/ha, visual rating): 0
Morningglory plant response rating (morningglory; [4]): 0
Morningglory plant response rating (morningglory; [5]): 30
Lambsquarters plant response rating (0 to 100 scale) (lambsquarters; 125 g ai/ha): 0
Plant response rating, Lambsquarters (lambsquarters; 500 g ai/ha, visual rating): 100
Lambsquarters plant response rating (lambsquarters; [4]): 0
Lambsquarters plant response rating (lambsquarters; [5]): 30
Barnyardgrass plant response rating (0 to 100 scale) (barnyardgrass [1]; 125 g ai/ha): 0
Plant response rating, Barnyardgrass (barnyardgrass [1]; 500 g ai/ha, visual rating): 10
Barnyardgrass plant response rating (barnyardgrass [1]; [4]): 0
Barnyardgrass plant response rating (barnyardgrass [1]; [5]): 0
Rice plant response rating (rice): 10
Crabgrass, Large plant response rating (0 to 100 scale) (large crabgrass; 125 g ai/ha): 0
Plant response rating, Crabgrass, Large (large crabgrass; 500 g ai/ha, visual rating): 50
Crabgrass, Large plant response rating (large crabgrass; [4]): 0
Crabgrass, Large plant response rating (large crabgrass; [5]): 10
Pigweed plant response rating (0 to 100 scale) (pigweed; 125 g ai/ha): 0
Plant response rating, Pigweed (pigweed; 500 g ai/ha, visual rating): 100
Pigweed plant response rating (pigweed; [4]): 0
Pigweed plant response rating (pigweed; [5]): 20
Sedge, Umbrella plant response rating [2]: 80
Barnyardgrass plant response rating (barnyardgrass [3]): 20
Oat, Wild plant response rating (wild oat; [4]): 0
Oat, Wild plant response rating (wild oat; [5]): 10
Surinam Grass plant response rating (0 to 100 scale) (Surinam grass; 125 g ai/ha): 0
Plant response rating, Surinam Grass (Surinam grass; 500 g ai/ha, visual rating): 0
Surinam Grass plant response rating (Surinam grass; [4]): 0
Surinam Grass plant response rating (Surinam grass; [5]): 10
Wheat plant response rating (wheat; [4]): 20
Wheat plant response rating (wheat; [5]): 20
Foxtail, Giant plant response rating (0 to 100 scale) (giant foxtail; 125 g ai/ha): 0
Plant response rating, Foxtail, Giant (giant foxtail; 500 g ai/ha, visual rating): 10
Foxtail, Giant plant response rating (giant foxtail; [4]): 0
Foxtail, Giant plant response rating (giant foxtail; [5]): 0
Blackgrass plant response rating (blackgrass; [4]): 20
Blackgrass plant response rating (blackgrass; [5]): 40
Velvetleaf plant response rating (0 to 100 scale) (velvetleaf; 125 g ai/ha): 0
Plant response rating, Velvetleaf (velvetleaf; 500 g ai/ha, visual rating): 0
Velvetleaf plant response rating (velvetleaf; [4]): 0
Velvetleaf plant response rating (velvetleaf; [5]): 0
Cocklebur plant response rating (0 to 100 scale) (cocklebur; 125 g ai/ha): 0
Plant response rating, Cocklebur (cocklebur; 500 g ai/ha, visual rating): 0
Cocklebur plant response rating (cocklebur; [4]): 0
Cocklebur plant response rating (cocklebur; [5]): 0
